Assay: Inhibition of 3 nM [3H]clonidine binding to rat kidney membrane imidazoline receptor I-1 in presence of rauwolscine

- IC50: 8.1 µM
SMILES: N#CSc1ccc2oc(C3=NCCN3)cc2c1
